Common to all, as to assay type: in vivo
The subject of test [1] is thrombus formation in mesenteric venules. As to the kind of experiment: Fluorescein sodium-mediated thrombus formation in mesenteric microvessels of mice. To be noted: n = 6, mean ± SEM (DMSO 117.7 ± 12.4 s). As for the experimental part:
Male ICR mice (weighing 20–25 g and aged 5–6 weeks) were purchased from BioLasco (Taipei, Taiwan). The animal use protocol for this project was approved by the Affidavit of Approval of Animal Use Protocol–Taipei Medical University (LAC-2020–0074). All animal experiments were conducted in accordance with the Guide for the Care and Use of Laboratory Animals, Eighth Edition (2011).
The mice were anesthetized with an oxygen–air mixture containing 3% isoflurane at a gas flow rate of 1.5–2 L/min. A bolus dose (bolus volume: 20 μL) of compound 6 (0.3 mg/kg, 0.6 mg/kg, or 1.2 mg/kg), DMSO (solvent control; 1.1 g/kg), or aspirin (20 mg/kg; positive control) was intravenously administered through the tail vein before the administering sodium fluorescein (15 mg/kg). The small intestinal segments were placed on a transparent culture dish, and the mesenteric vessels were observed under a microscope. Venules (20–30 μm) were selected and irradiated with light (wavelength <520 nm) to induce endothelial damage, causing thrombus formation and subsequent vessel occlusion. The time required to occlude a microvessel was recorded ([Lin et al., 2013]). A formula for dose translation based on the […] was used to calculate the appropriate dose for use in the mice ([Reagan-Shaw et al., 2008]). [Reagan-Shaw et al. (2008)] reported that the animal dose should not be extrapolated to a human equivalent dose (HED) by a simple conversion based on body weight. […] The formula for dose translation based on BSA is as follows: HED (mg/kg) = Animal dose (mg/kg) multiply by Animal Km/Human Km. Mouse Km is 3 and Human Km is 37.
FIGURE 3 Effects of compound 6 on thrombosis and hemostasis in mice. Mice were treated with compound 6 (0.3, 0.6, or 1.2 mg/kg), DMSO (solvent control), or aspirin (20 mg/kg; positive control) via intravenous route for 10 min. (A) The microthrombus formation (arrows) in mesenteric venules. Scale bar = 30 μm. […] Each point on the plot indicates a mouse (n = 6). Data (A,B) are presented as means ± SEM (n = 6). *p < 0.05 and ***p < 0.001 compared with the DMSO group.

The test system of test [2] is collagen/epinephrine-induced pulmonary thrombosis. As to the kind of experiment: Collagen/epinephrine-induced pulmonary embolism in mice. To be noted: 1.2 mg/kg i.v., relative to DMSO group. As for the experimental part: Pulmonary embolism was induced using collagen and epinephrine in […] ICR mice according. Briefly, mice were intravenously injected with a bolus dose of DMSO (1.1 g/kg, solvent control), compound 6 (1.2 mg/kg), or aspirin (20 mg/kg, positive control). Subsequently, a mixture of collagen (0.6 mg/kg) and epinephrine (0.2 mg/kg) was administered via the tail vein. When respiration became severely weakened but the heart was still beating, 0.5 mL of Evans blue solution (1% in saline) was injected into the heart. The lungs were then excised and photographed. Mouse mortality was monitored for 24 h, and all surviving mice were euthanized immediately after the experiment. Each group consisted of six animals.
FIGURE 4 Effects of compound 6 on collagen/epinephrine-induced pulmonary thrombosis and FeCl3-induced thrombosis in mesenteric artery. Mice were intravenously administered with DMSO (solvent control), compound 6 (1.2 mg/kg), or aspirin (20 mg/kg, positive control) for 10 min (A) Mice were injected with collagen/epinephrine to induce pulmonary embolism, which was detected through staining with Evans blue (left panel). The survival rate was recorded for 24 h (right panel). […]
(A) Mice were injected with collagen/epinephrine to induce pulmonary embolism, which was detected through staining with Evans blue. (B) The survival rate was recorded for 24 h. […]

Test [3] has as its system FeCl3-induced thrombosis in mesenteric artery. Briefly: FeCl3-induced mesenteric artery thrombosis in mice. To be noted: 1.2 mg/kg i.v., 30% FeCl3, relative to DMSO group. As for the experimental part: Mice were anesthetized with an oxygen–air mixture containing 3% isoflurane at a gas flow rate of 1.5–2 L/min. To label platelets, they were injected with the fluorescent dye rhodamine 6G (0.6 mg/kg). 10 min before FeCl3 treatment, mice were intravenously administered DMSO (1.1 g/kg, solvent control), compound 6 (1.2 mg/kg), or aspirin (20 mg/kg, positive control). The mesenteric arteries were surgically exposed and injured by applying a filter paper saturated with 30% FeCl3 for 5 min to induce thrombosis. Thrombus formation was then continuously monitored using a fluorescence microscope (Olympus, Tokyo, Japan).
FIGURE 4 Effects of compound 6 on collagen/epinephrine-induced pulmonary thrombosis and FeCl3-induced thrombosis in mesenteric artery. Mice were intravenously administered with DMSO (solvent control), compound 6 (1.2 mg/kg), or aspirin (20 mg/kg, positive control) for 10 min (A) Mice were injected with collagen/epinephrine to induce pulmonary embolism, which was detected through staining with Evans blue (left panel). The survival rate was recorded for 24 h (right panel). Data are presented as means ± SEM (n = 6). **p < 0.01 compared with the sham group. #p < 0.05 compared with the DMSO (solvent control) group. (B) FeCl3-induced thrombosis in mesenteric artery as observed under real-time fluorescent microscopy. […] Scale bar = 100 µm. […]

On to `CCCCN1C(=O)c2cccc3c(NCCNC(=O)C45CC6CC(CC(C6)C4)C5)ccc(c23)C1=O` [compound 6], for which the results for the Occlusion time in test [1] (0.3 mg/kg i.v.), in test [1] (0.6 mg/kg i.v.) and in test [1] (1.2 mg/kg i.v.) were 211.5 ± 15.8 s, 333.5 ± 45.6 s and 451.5 ± 27.4 s, respectively. For the same compound, in test [2], the “Collagen/epinephrine-induced pulmonary thrombosis (Evans blue staining of lung)” value was “could prevent”. Besides, the “Platelet accumulation on the injured vessels (rhodamine 6G-labeled platelets)” value in test [3] is reported as “delayed platelet accumulation”.

The values above are taken from publication PMC12234328, “A naphthalimide derivative exerts potent antiplatelet and antithrombotic activities without a bleeding tendency” (Frontiers in Pharmacology, 2025).
